Assay results taken from patent EP0639380B1, “Cyclodextrin inclusion product of taxol, process for producing the same, and its use” (Ensuiko Sugar Refining Company, Limited, priority 1993, dated 1995).
Like-named read-outs stand apart in the source and are kept apart here.

Tests used:
[1] = 70 min
Method: 098 g of hydroxyethyl-β-CD in which, of 21 hydroxyl groups contained in one β -CD molecule, an average of 1.6 groups are substituted through an ether bond with a hydroxyethyl group (hereinafter referred to as HE-β-CD) or 0.090 g of hydroxypropyl-β-CD in which, of 21 hydroxyl groups contained in one β -CD molecule, an average of 0.9 groups are substituted through an ether bond with a hydroxypropyl group (hereinafter referred to as HP-β -CD), and the volume of each solution was adjusted to 10 ml to prepare aqueous CD solutions of a concentration of 6 mM.
To the solutions were added 2 mg each of taxol, and the resulting mixtures were stirred at room temperature (20 to 25°C) at 5,000 r.p.m. As a control, 2 mg of taxol were added to 10 ml of water, and the resulting mixture was stirred at room temperature (20 to 25°C) at 5,000 r.p.m. After 70 minutes of stirring, the solutions were passed through a filter of a pore diameter of 0. 45µm, and the concentration of taxol contained in the filtrates was determined by highperformance liquid chromatography (HPLC).
Then, 20 mg of taxol were added to the aqueous DM-β-CD solution, 2 mgof taxol to the aqueous HP-β-CD solution, and 1 mg each of taxol to the other aqueous CD solutions, and the resulting mixtures were stirred at room temperature (20 to 25°C) at 5,000 r.p.m. As a control, 1 mg of taxol was added to 10 ml of water, and the resulting mixture was stirred at room temperature (20 to 25°C) at 5,000 r.p.m. After 70 minutes of stirring, the solutions were passed through a filter with a pore diameter of 0.45µm, and the concentration of taxol contained in the filtrates was determined.

[2] = type: physicochemical
Method: Into 70 ml of a mixture of methanol and water (volume ratio, 1:1), the same volume of a mixture of acetonitrile and water (volume ratio, 1: 1), the same volume of a mixture of acetone and water (volume ratio, 1: 1) and the same volume of mixture of tetrahydrofuran and water (volume ratio, 1:1) were added 5 mg each of taxol. To the resulting taxol solutions were added 500 mg each of DM-β-CD, and the resulting mixtures were stirred vigorously by a stirrer at a temperature of 25°C. After two hours of stirring, 100 ml each of water were added thereto, and the resulting solutions were freeze-dried, so as to obtain powders by completely removing the water and the organic solvents. Then, 8 mg each of the thus-obtained powders were dissolved into 1 ml of water while stirring, and the resulting solutions were passed through a filter with a pore size of 0. 45µm, and the concentration of DM-β-CD and of the taxol contained in the filtrates was determined by HPLC. […]
Two taxol solutions were prepared by dissolving 5 mg each of taxol into 100 ml each of mixtures of methanol and water (volume ratio, 1:1). To these solutions were added 50 mg of HE-β-CD or HP-β-CD, and the resulting mixtures were vigorously stirred using a stirrer at 25°C. […]

Row | Compound | Solubility of Taxol [1] [µ g/ml] | Solubilty of Taxol [1] [µ g/ml] | Solubility of Taxol [2] [µ g/ml]
1 | 2, 6-di-O-methyl- β -CD [DM-β-CD] | 47.1 | 1236 | 
2 | 6-mono-O-maltosyl-β-CD [G2-β-CD] | 0.5 | 23.0 | 
3 | hydroxyethyl-β-CD [HE-β-CD] | 0.5 | 22.2 | 1.3

Now from value to compound:

Row | Solubility of Taxol [1] [µ g/ml] | Solubilty of Taxol [1] [µ g/ml] | Solubility of Taxol [2] [µ g/ml] | Compound
4 | 0 |  |  | CC(=O)O[C@H]1C(=O)[C@@]2(C)[C@H]([C@H](OC(=O)c3ccccc3)[C@]3(O)C[C@H](OC(=O)[C@H](O)[C@@H](NC(=O)c4ccccc4)c4ccccc4)C(C)=C1C3(C)C)[C@]1(OC(C)=O)CO[C@@H]1C[C@@H]2O [CD not added (Control), taxol]
5 | 1.1 | 68.9 | 6.1 | hydroxypropyl-β-CD [HP-β-CD]
